Experimental data published in patent publication US7598079B2, “Assay for identifying compounds which affect stability of mRNA” (Novation Pharmaceuticals, Inc., priority 1998, dated 2009).
Read-outs that look alike come from different tables or passages of the source. Numbered stars: 1 amine (or outer) side, 2 acyl side, 3 side chain; on linkers, the order of the positions; unused ones are H or OH. Bridge positions count the residues as written; N and C are the ends. Square brackets hold non-standard residues; d marks the D form. Peptide text beside a SMILES is read from it. I, II: the chains in the order shown. Actinocin(9to1) = Cc1c2oc3c(C)ccc(C(=O)[*:1])c3nc-2c(C(=O)[*:2])c(N)c1=O; NMeV = CN[C@H](C(=O)O)C(C)C; Sar = CNCC(=O)O

Key:
Type in all cases: cell-based, human
[1] = system: THP-1 clone No. 63 (luciferase mRNA with IL-1β 3′UTR instability sequence, three tandem AUUUA motifs); assay: Luciferase reporter gene assay, clone No. 63 (pGL2_Neo30 with 30 bp IL-1β 3′UTR mRNA instability sequence); details: for Luciferase Activity (% of Control) Clone No. 63: compound 1 μM; for Luciferase Activity (% of Control) Clone No. 63 / Effect on mRNA stability in the assay (Table 3 summary): differentiated cells; for Effect on mRNA stability in the assay (Table 3 summary): clone 63 versus clone 53; for Luciferase Activity Clone 63 γIFN/LPS stimulated: γIFN/LPS stimulated cells, mean of three experiments; for inhibition at 1 µM: Homo sapiens, THP-1
Description: (§1) In order to obtain a vector for stable integration into THP-1 cells, a XhoI-SaII fragment of the neo resistant gene (expressing aminoglycoside 3′phosphotransferase) derived from pMC1neoPolyA (Stratagene) was subcloned into the SaII site of pGL2-Control (Promega). This resulting plasmid was called pGL2_Neo. A 30 bp fragment (containing three tandem AUUUA motifs and flanking IL-1β 3′UTR sequence) obtained by annealing two complementary synthetic oligonucleotides (see FIG. 2) was subcloned into pGL2_Neo using the PflMI restriction site. […] The lacZ gene was obtained from a HindIII/BamHI restriction digest of pSV-beta-Galactosidase (Promega) and subcloned into the HindIII/BamHI site of pGL2-Control (Promega).
(§2) THP-1 cells were then cotransfected with either pGL2_Neo and pGL2-β-galactosidase vectors (to generate control cell lines) or with pGL2_Neo30 and pGL2-β-galactosidase vectors by electroporation. 10^7 cells/ml in 1.3 mM KH2PO4, 7.36 mM Na2HPO4, 2.44 mM KCl, 124 mM NaCl, 5 mM glucose, 9.64 μM MgCl2 and 16 μM CaCl2 pH 7.2 were transfected with 20 μg of DNA in a Bio-Rad Gene Pulser (250V, 690 μF and indefinite resistance) using a 0.4 cm cuvette. Cells were subsequently cultured in RPMI medium containing 10% FBS, 2 mM L-Gln (L-glutamine), 50 μM 2-mercaptoethanol and 600 μg/ml of G418 (geneticin). After transfection of pGL2_Neo30 and pGL2_Neo into THP-1 cells, G418 resistant stable cell lines were obtained by selection with G418 and assayed for luciferase activity. Cotransfected cell lines were also assayed for β-galactosidase activity which can serve as an internal control (see Example 5 below). One cell line of each transfection was chosen for further analysis; the pGL2_Neo30/pGL2-β-galactosidase cell line was referred to as clone No. 63 and the pGL2_Neo/pGL2-β-galactosidase cell line as clone No. 53. No endogenous luciferase activity could be detected in normal THP-1 cells.
(§3) The transfected human monocytic leukaemia cell lines, clones No. 53 and 63 are grown in RPMI medium supplemented with 110 U/ml penicillin, 100 μg/ml streptomycin, 2 mM L-Gln and 2 g/l NaHCO3. Heat-treated FBS (5%) is added before use. The cells are grown to a density of 5×10^5/ml and induced to differentiate with 100 U/ml (final concentration) γIFN. Three hours later, 10 μl of LPS (5 μg/ml final concentration) is added. This time point is designated time 0. Compounds are added at various times after LPS addition as indicated.
(§4) In order to adapt the system to the use of 96 well plates, cells were grown in Packard flat bottom white polystyrene microplates (Cat. No. 6005180) in RPMI medium lacking phenol red (AMIMED). Cells were plated at 5×10^4/well. After treatment of the cells, luciferase was measured using the Packard Luc Lite system (Cat. No. 601691 1) according to the manufacturer's instructions in a final volume of 205 μl. Briefly, to a cell suspension of 5×10^5 cells/ml, γIFN (1000 U/ml, Boehringer Mannheim, No. 1050494) to a final concentration of 100 U/ml and 0.25% (v/v) Luc Lite Enhancer was added. After a 3 hour incubation LPS (50 μg/ml Sigma, L-8274) was added to give 5 μg/ml final concentration. The cells were then plated at 5×10^4/100 μl/well into flat bottom white polystyrene microplates (Packard, Cat. No. 6005180) and incubated for 16 hours. 5 μl of compound solution or control vehicle was then added and the cells were further incubated as indicated. 100 μl of luciferase substrate solution was added and the plates were covered with TopSeal-A press-on adhesive sealing film (Packard Cat. No. 6005185) before measuring luminescence with a Packard Top Count Scintillation Counter at 22° C. The luciferase signal was stable for at least 90 min.
(§5) The THP-1 cell lines, clone Nos. 63 and 53 are grown, differentiated with γIFN and stimulated with LPS identical to normal THP-1 cells. Radicicol analog A was added 16 hours after the addition of LPS and cell extracts were then taken 8 hours later or as indicated. […]

[2] = system: THP-1 control clone No. 53 (luciferase mRNA without instability sequence); assay: Luciferase reporter gene assay, control clone No. 53 (pGL2_Neo, no instability sequence); details: for Luciferase Activity (% of Control) Clone No. 53: compound 1 μM, differentiated cells; for Luciferase Activity Clone 53 γIFN/LPS stimulated: γIFN/LPS stimulated cells, mean of three experiments
Description: as §1, §2, §3, §4, §5

[3] = system: THP-1 clone 63 (pGL2-β-galactosidase, lacZ without mRNA instability sequences); assay: β-galactosidase internal control activity, clone 63; details: mean of three experiments; for β-galactosidase activity Clone 63 Unstimulated: unstimulated cells; for β-galactosidase activity Clone 63 γIFN/LPS stimulated: γIFN/LPS stimulated cells
Description: as §1, §2
(§6) In the previous examples, test compounds were assayed by comparing their activity in two separate cell lines (clone Nos. 53 and 63). However, clone 63 was cotransfected with two separate plasmids: one plasmid (pGL2_Neo30) contained the luciferase gene with the 30 bp instability sequence driven by the SV40 promoter and the other plasmid (pGL2-β-galactosidase, FIG. 3B) contained the lacZ gene driven by the SV40 promoter but contained no mRNA instability sequences. The β-galactosidase activity of this cell line should not be affected by exposure of the cells to compounds which promote mRNA instability via mRNA instability sequences. As a result, one should be able to screen for compounds having mRNA instability activity by simply comparing luciferase activity in unstimulated cells versus stimulated cells and comparing the β-galactosidase activity in these same cells. […]

[4] = system: THP-1 clone 53 (pGL2-β-galactosidase, lacZ without mRNA instability sequences); assay: β-galactosidase internal control activity, clone 53; details: mean of three experiments; for β-galactosidase activity Clone 53 Unstimulated: unstimulated cells; for β-galactosidase activity Clone 53 γIFN/LPS stimulated: γIFN/LPS stimulated cells
Description: as §1, §2, §6

[5] = system: IL-1β-AU cDNA derived RNA (3′ UTR AREs deleted) in THP-1 cells; assay: RNase protection analysis of IL-1β-AU (ARE-deleted) RNA in stably transfected THP-1 cells; details: THP-1 cells stably transfected with IL-1β-AU construct
Description: For examples 1-5, the segment of 3′ UTR of IL-1β which contains all the AREs was deleted and the resulting IL-1β-AU cDNA was subcloned into an expression vector.

[6] = system: THP-1 clone No. 63 (luciferase mRNA with IL-1β 3′UTR instability sequence, three tandem AUUUA motifs); assay: Luciferase reporter gene assay, clone No. 63 (pGL2_Neo30 with 30 bp IL-1β 3′UTR mRNA instability sequence); details: for Luciferase Activity Clone 63 Unstimulated: unstimulated cells, mean of three experiments
[7] = system: THP-1 control clone No. 53 (luciferase mRNA without instability sequence); assay: Luciferase reporter gene assay, control clone No. 53 (pGL2_Neo, no instability sequence); details: 10 μM; unstimulated cells; mean of three experiments
[8] = system: THP-1 clones No. 53 and 63 (luciferase); assay: Half life of luciferase mRNA and protein after addition of compounds, clones No. 53 and 63; details: after 8 hours level comparable to radicicol analog A (1 μM)
Description: To measure mRNA degradation using luciferase protein activity it is important to know the half life of the luciferase enzyme in order to determine an optimal time for assaying for potential mRNA destabilizing agents by way of luciferase protein stability. The possibility exists that mRNA could be degraded but due to a long half life of the protein, high enzyme activities could persist. Therefore we analyzed luciferase activities after addition of the transcriptional inhibitor actinomycin D (act. D) or the translational inhibitor cycloheximide (CHX). […] In view of this relatively short half life of the luciferase enzyme, it is safe to assess substances for activity on mRNA degradation as early as 8 hours after compound addition.

## C=C(C/C=C/C(C)(C)O)[C@@H]1CC[C@]2(C)[C@@H]1CC[C@@H]1[C@@]3(C)CC[C@H](O)C(C)(C)[C@@H]3CC[C@]12C [(17α)-23-(E)-dammara-20,23-dien-3β,25-diol]
[1]
  Luciferase Activity (% of Control) Clone No. 63: 91 % of Control
[2]
  Luciferase Activity (% of Control) Clone No. 53: 116 % of Control

## C[C@@H]1C[C@H]2[C@@H]3CCC4=CC(=O)C=C[C@]4(C)[C@@]3(F)[C@@H](O)C[C@]2(C)[C@@]1(O)C(=O)CO [Dexamethasone]
[1]
  Luciferase Activity (% of Control) Clone No. 63: 63 % of Control
[2]
  Luciferase Activity (% of Control) Clone No. 53: 72 % of Control

## COc1cc(O)c2c(c1OC)/C=C/C[C@H](O)[C@H](O)C(=O)/C=C\C[C@H](C)OC2=O [Radicicol analog A, radicicol analog A]
[1]; 1 μM
  Effect on mRNA stability in the assay (Table 3 summary): clear effect on mRNA stability
  Luciferase Activity Clone 63 γIFN/LPS stimulated: 7 % control
[1]; 10 μM
  Luciferase Activity Clone 63 γIFN/LPS stimulated: 2 % control
[1]; 1 μM, differentiated clone No. 63, 8 hours, read-out: Inhibition of luciferase activity, greatest in some cases
  inhibition at 1 µM: 93%
[1]; 1 μM, differentiated clone No. 63, added 16 h after LPS, extracts 8 hours later, read-out: Inhibition of luciferase activity, on average
  inhibition at 1 µM: 50%
[1]
  Luciferase Activity (% of Control) Clone No. 63: 49 % of Control
[1]; differentiated clone No. 63, 8 hr. treatment (FIG. 8)
  Concentration dependence of luciferase inhibition in differentiated clone No. 63: Concentration dependent inhibition of luciferase activity
[2]; 1 μM
  Luciferase Activity Clone 53 γIFN/LPS stimulated: 88 % control
[2]; 10 μM
  Luciferase Activity Clone 53 γIFN/LPS stimulated: 63 % control
[2]
  Luciferase Activity (% of Control) Clone No. 53: 120 % of Control
[2]; concentrations higher than 5×10^−6 M
  Effect on control clone (No. 53) at high concentrations (cytotoxicity or inhibitory activity on transcription): also inhibited the control clone
[2]; up to 5×10^−6M
  Effect on luciferase activity of control clone No. 53: no effects
[3]; 1 μM
  β-galactosidase activity Clone 63 Unstimulated: 96 % control
  β-galactosidase activity Clone 63 γIFN/LPS stimulated: 97 % control
[3]; 10 μM
  β-galactosidase activity Clone 63 Unstimulated: 84 % control
  β-galactosidase activity Clone 63 γIFN/LPS stimulated: 70 % control
[4]; 1 μM
  β-galactosidase activity Clone 53 Unstimulated: 99 % control
  β-galactosidase activity Clone 53 γIFN/LPS stimulated: 98 % control
[4]; 10 μM
  β-galactosidase activity Clone 53 Unstimulated: 103 % control
  β-galactosidase activity Clone 53 γIFN/LPS stimulated: 62 % control
[5]
  Response of AU-less derived RNA to compound (RNase protection): showed resistance
[6]; 1 μM, undifferentiated cells, 8 hr. treatment
  Reduction of luciferase activity in undifferentiated clone No. 63: only a limited reduction of luciferase activity
[6]; 1 μM
  Luciferase Activity Clone 63 Unstimulated: 63 % control
[6]; 10 μM
  Luciferase Activity Clone 63 Unstimulated: 11 % control
[7]
  Luciferase Activity Clone 53 Unstimulated: 87 % control

## O=C1CCC(N2C(=O)c3ccccc3C2=O)C(=O)N1 (centres unmarked) [Thalidomide]
[1]
  Luciferase Activity (% of Control) Clone No. 63: 112 % of Control
[2]
  Luciferase Activity (% of Control) Clone No. 53: 98 % of Control

## Cc1c2oc3c(C)ccc(C(=O)N[C@@H]4C(=O)N[C@H](C(C)C)C(=O)N5CCC[C@H]5C(=O)N(C)CC(=O)N(C)[C@@H](C(C)C)C(=O)O[C@@H]4C)c3nc-2c(C(=O)N[C@@H]2C(=O)N[C@H](C(C)C)C(=O)N3CCC[C@H]3C(=O)N(C)CC(=O)N(C)[C@@H](C(C)C)C(=O)O[C@@H]2C)c(N)c1=O [actinomycin D] (I: T[dV]P[Sar][NMeV] / II: T[dV]P[Sar][NMeV]; ester I:1-I:C, II:1-II:C; linker I:N-II:N via Actinocin(9to1))
[8]; 20 μg/ml
  Luciferase activities after addition of transcriptional inhibitor: rapidly declined

## C[C@@H]1C[C@@H]([C@H](O)CC2CC(=O)NC(=O)C2)C(=O)[C@@H](C)C1 [cycloheximide]
[8]; 20 μM
  Luciferase activities after addition of translational inhibitor: rapidly declined

## Radicicol
[1]; 1 μM
  Effect on mRNA stability in the assay (Table 3 summary): clear effect on mRNA stability
[1]
  Luciferase Activity (% of Control) Clone No. 63: 47 % of Control
[2]
  Luciferase Activity (% of Control) Clone No. 53: 98 % of Control

## Stemphon
[1]
  Luciferase Activity (% of Control) Clone No. 63: 90 % of Control
[2]
  Luciferase Activity (% of Control) Clone No. 53: 95 % of Control
